Patent US8124647B2 (priority 2002, dated 2012)

What was measured:
human androgen receptor [1] = molecular target: T1, human androgen receptor (Homo sapiens, UniProt P10275); experiment: cell-based; settings: in the presence of 1 nM DHT
T1 construct: expressed in transfected cells; host or cells: CHO cells, cell line CHO-AR-pMMTV-LUC 1G12-A5-CA
T1 sequence (P10275 1-920): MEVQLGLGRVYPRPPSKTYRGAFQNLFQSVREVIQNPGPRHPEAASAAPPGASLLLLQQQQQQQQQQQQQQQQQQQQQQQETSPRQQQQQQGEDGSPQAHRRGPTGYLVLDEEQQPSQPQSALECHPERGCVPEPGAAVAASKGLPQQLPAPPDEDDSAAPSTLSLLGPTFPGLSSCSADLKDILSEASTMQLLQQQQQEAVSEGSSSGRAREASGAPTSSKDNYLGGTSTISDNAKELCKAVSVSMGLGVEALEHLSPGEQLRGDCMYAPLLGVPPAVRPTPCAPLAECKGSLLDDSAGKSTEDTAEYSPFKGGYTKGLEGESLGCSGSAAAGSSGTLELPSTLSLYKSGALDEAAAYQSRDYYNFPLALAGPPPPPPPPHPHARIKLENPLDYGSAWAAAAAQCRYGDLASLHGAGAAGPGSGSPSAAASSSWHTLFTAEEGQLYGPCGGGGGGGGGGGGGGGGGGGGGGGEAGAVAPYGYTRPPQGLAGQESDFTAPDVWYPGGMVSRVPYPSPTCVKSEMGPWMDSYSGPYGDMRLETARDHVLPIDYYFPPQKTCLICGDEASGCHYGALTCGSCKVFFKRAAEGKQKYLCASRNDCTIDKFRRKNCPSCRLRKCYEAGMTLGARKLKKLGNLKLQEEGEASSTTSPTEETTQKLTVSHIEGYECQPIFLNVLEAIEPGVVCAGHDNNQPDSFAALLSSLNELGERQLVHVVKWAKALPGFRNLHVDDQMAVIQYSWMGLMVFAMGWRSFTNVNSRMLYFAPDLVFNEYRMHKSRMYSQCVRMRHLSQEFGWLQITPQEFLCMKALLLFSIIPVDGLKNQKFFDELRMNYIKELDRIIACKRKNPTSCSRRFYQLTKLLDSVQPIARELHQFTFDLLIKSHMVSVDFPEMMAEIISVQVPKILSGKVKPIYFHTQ
Description: (§1) Compounds were tested for their Androgen Receptor activity in a transactivation assay and in a binding assay.
(§2) The (anti-)androgenic activity of test compounds (EC50 and intrinsic activity) was determined in an in vitro bioassay of Chinese hamster ovary (CHO) cells stably transfected with the human androgen receptor expression plasmid and a reporter plasmid in which the MMTV-promoter is linked to the luciferase reporter gene. The cell-line CHO-AR-pMMTV-LUC 1G12-A5-CA is described in Schoonen et al. (2000), Journal of Steroid Biochemistry and Molecular Biology 74(4):213-222. The antiandrogenic activity of a test compound was determined by the inhibition of the transactivation via the androgen receptor of the enzyme luciferase in the presence of 1 nM DHT (5α-dihydrotestosterone, 17β-hydroxy-5α-androstan-3-one). Intrinsic activity of antiandrogenic activity was determined in the presence of the reference antiandrogen 2-Hydroxy-2-methyl-N-(4-nitro-3-trifluoromethyl-phenyl)-propionamide(Hydroxyflutamide), and set at 100%. For androgenic activity, maximal intrinsic activity in the presence of 100 nM DHT was set at 100%.

human androgen receptor [2] = molecular target: T1, human androgen receptor; experiment: androgenic activity (EC50 and intrinsic activity), transactivation bioassay in CHO-AR-pMMTV-LUC cells (Table 4); type: cell-based
Description: as §1, §2

[3] = antiandrogenic activity, read-out: ant EC50
[4] = androgenic activity, read-out: ago EC50

Row | Compound | EC50 (human androgen receptor [1]; [3]) [µM] | EC50 (human androgen receptor [2]; [4]) [nM] | EC50 (human androgen receptor [1]; ant EC50, antiandrogenic activity) [µM] | EC50 (human androgen receptor [2]; ago EC50, androgenic activity) [nM]
1 | COc1ccc2c(Sc3ccccc3[N+](=O)[O-])cn(Cc3cc(F)cc(C(F)(F)F)c3)c2c1 [Compound 69] | > 10 | 5 to 100 | – | –
2 | COc1ccc2c(Sc3ccccc3[N+](=O)[O-])cn(Cc3cccc([N+](=O)[O-])c3)c2c1 [Compound 74] | – | – | > 10 | < 5
3 | COc1ccc2c(Sc3ccccc3[N+](=O)[O-])cn(Cc3cccc(C)c3F)c2c1 [Compound 2] | > 10 | < 1000 | – | –
4 | COc1ccc2c(Sc3ccccc3[N+](=O)[O-])cn(Cc3cccc(C#N)c3)c2c1 [Compound 68] | > 10 | < 5 | – | –
5 | COc1ccc2c(Sc3ccccc3[N+](=O)[O-])cn(Cc3cccc(F)c3)c2c1 [Compound 71] | > 10 | < 5 | – | –
6 | O=[N+]([O-])c1ccccc1Sc1cn(Cc2cc(F)cc(F)c2)c2cc(F)ccc12 [Compound 50] | > 10 | 5 to 100 | – | –
7 | COc1ccc2c([S+]([O-])c3ccccc3[N+](=O)[O-])cn(Cc3cc(F)cc(F)c3)c2c1 (stereo not drawn) [Compound 64, 1-(3,5-Difluoro-benzyl)-6-methoxy-3-(2-nitro-benzenesulfinyl)-1H-indole] | < 1 | > 10000 | – | –
8 | COc1ccc2c(Sc3ccccc3[N+](=O)[O-])cn(Cc3ccccc3C#N)c2c1 [Compound 4] | 0.005 to 0.1 | < 1000 | – | –
9 | O=C(NCC1CC1)c1ccc2c(Sc3ccccc3[N+](=O)[O-])cn(Cc3cc(F)cc(F)c3)c2c1 [Compound 41] | > 10 | < 5 | – | –
10 | O=C(NCc1cccnc1)c1ccc2c(Sc3ccccc3[N+](=O)[O-])cn(Cc3cc(F)cc(F)c3)c2c1 [Compound 35] | > 10 | 5 to 100 | – | –
11 | CNC(=O)c1ccc2c(Sc3ccccc3[N+](=O)[O-])cn(Cc3cc(F)cc(F)c3)c2c1 [Compound 47, 1-(3,5-Difluoro-benzyl)-3-(2-nitro-phenylsulfanyl)-1H-indole-6-carboxylic acid methylamide] | > 10 | < 5 | – | –
12 | COc1ccc2c(c1)c(Sc1ccccc1[N+](=O)[O-])cn2Cc1ccccc1 [Compound 91] | 1 to 10 | > 10000 | – | –
13 | COc1ccc2c(Sc3ccccc3[N+](=O)[O-])cn(Cc3cc(F)cc(F)c3)c2c1 [Compound 63, 1-(3,5-Difluoro-benzyl)-6-methoxy-3-(2-nitro-phenylsulfanyl)-1H-indole] | > 10 | < 5 | – | –
14 | O=C(NCc1ccco1)c1ccc2c(Sc3ccccc3[N+](=O)[O-])cn(Cc3cc(F)cc(F)c3)c2c1 [Compound 34] | > 10 | 5 to 100 | – | –
15 | O=C(c1ccc2c(Sc3ccccc3[N+](=O)[O-])cn(Cc3cc(F)cc(F)c3)c2c1)N1CCOCC1 [Compound 28] | > 10 | 5 to 100 | – | –
16 | O=C(NCCO)c1ccc2c(Sc3ccccc3[N+](=O)[O-])cn(Cc3cc(F)cc(F)c3)c2c1 [Compound 37] | > 10 | < 5 | – | –
17 | Nc1ccc2c(Sc3ccccc3[N+](=O)[O-])cn(Cc3cc(F)cc(F)c3)c2c1 [Compound 57, 1-(3,5-Difluoro-benzyl)-3-(2-nitro-phenylsulfanyl)-1H-indol-6-ylamine] | > 10 | < 1000 | – | –
18 | COc1ccc2c(Sc3ccccc3[N+](=O)[O-])cn(Cc3ccc(Cl)c(C(F)(F)F)c3)c2c1 [Compound 76] | > 10 | < 1000 | – | –
19 | NC(=O)c1ccc2c(Sc3ccccc3[N+](=O)[O-])cn(Cc3cc(F)cc(F)c3)c2c1 [Compound 33, 1-(3,5-Difluoro-benzyl)-3(2-nitro-phenylsulfanyl)-1H-indole-6-carboxylic acid amide] | > 10 | < 5 | – | –
20 | COc1ccc2c(Sc3cccc[n+]3[O-])cn(Cc3cc(F)cc(F)c3)c2c1 [Compound 66] | 0.005 to 0.1 | < 1000 | – | –

Row | Compound | EC50 (human androgen receptor [1]; [3]) [µM] | EC50 (human androgen receptor [2]; [4]) [nM] | EC50 (human androgen receptor [1]; ant EC50, antiandrogenic activity) [µM] | EC50 (human androgen receptor [2]; ago EC50, androgenic activity) [nM]
21 | COCCNC(=O)c1ccc2c(Sc3ccccc3[N+](=O)[O-])cn(Cc3cc(F)cc(F)c3)c2c1 [Compound 38] | > 10 | < 5 | – | –
22 | COc1ccc2c(Sc3ccccc3[N+](=O)[O-])cn(CC3CCCCO3)c2c1 (stereo not drawn) [Compound 11] | > 10 | 5 to 100 | – | –
23 | CN(C)CCNC(=O)c1ccc2c(Sc3ccccc3[N+](=O)[O-])cn(Cc3cc(F)cc(F)c3)c2c1 [Compound 36] | > 10 | 5 to 100 | – | –
24 | COc1ccc2c(S(=O)(=O)c3ccccc3[N+](=O)[O-])cn(Cc3cc(F)cc(F)c3)c2c1 [Compound 62, 1-(3,5-Difluoro-benzyl)-6-methoxy-3-(2-nitro-benzenesulfonyl)-1H-indole] | > 10 | < 5 | – | –
25 | COc1ccc2c(Sc3ccccc3[N+](=O)[O-])cn(Cc3ccccc3C(F)(F)F)c2c1 [Compound 12] | > 10 | < 1000 | – | –
26 | COc1ccc2c(Sc3ccccc3[N+](=O)[O-])cn(Cc3ccc(C)cc3)c2c1 [Compound 85] | > 10 | < 1000 | – | –
27 | COc1ccc2c(Sc3ccccc3[N+](=O)[O-])cn(Cc3csc(C)n3)c2c1 [Compound 79] | > 10 | 5 to 100 | – | –
28 | COc1ccc2c(Sc3ccccc3[N+](=O)[O-])cn(Cc3ccccn3)c2c1 [Compound 9, 6-Methoxy-3-(2-nitro-phenylsulfanyl)-1-pyridin-2-ylmethyl-1H-indole] | < 0.005 | < 5 | – | –
29 | Cc1cccc2c1c(Sc1ccccc1[N+](=O)[O-])cn2Cc1cc(F)cc(F)c1 [Compound 55] | > 10 | 5 to 100 | – | –
30 | COc1ccc(Cn2cc(Sc3ccccc3[N+](=O)[O-])c3ccc(OC)cc32)cc1 [Compound 84] | 1 to 10 | < 1000 | – | –
31 | CCNC(=O)c1ccc2c(Sc3ccccc3[N+](=O)[O-])cn(Cc3cc(F)cc(F)c3)c2c1 [Compound 45] | > 10 | < 5 | – | –
32 | COc1ccc2c(Sc3ccccc3[N+](=O)[O-])cn(Cc3cc(F)ccc3C(F)(F)F)c2c1 [Compound 70] | > 10 | 5 to 100 | – | –
33 | CC(C)NC(=O)c1ccc2c(Sc3ccccc3[N+](=O)[O-])cn(Cc3cc(F)cc(F)c3)c2c1 [Compound 46] | 0.005 to 0.1 | 5 to 100 | – | –
34 | COc1ccc2c(Sc3ccccc3[N+](=O)[O-])cn(Cc3ccccc3C)c2c1 [Compound 7] | > 10 | 5 to 100 | – | –
35 | COC(=O)c1ccc2c(Sc3ccccc3[N+](=O)[O-])cn(Cc3cc(F)cc(F)c3)c2c1 [Compound 31, 1-(3,5-Difluoro-benzyl)-3-(2-nitro-phenylsulfanyl)-1H-indole-6-carboxylic acid methyl ester] | > 10 | < 5 | – | –
36 | COc1ccc2c(Sc3ccccc3[N+](=O)[O-])cn(Cc3ccccc3F)c2c1 [Compound 5] | > 10 | < 1000 | – | –
37 | COc1ccc2c(Sc3ccccc3[N+](=O)[O-])cn(Cc3cccc([N+](=O)[O-])c3C)c2c1 [Compound 6] | > 10 | – | – | < 1000
38 | CN1CCN(C(=O)c2ccc3c(Sc4ccccc4[N+](=O)[O-])cn(Cc4cc(F)cc(F)c4)c3c2)CC1 [Compound 29] | > 10 | 5 to 100 | – | –
39 | O=C(Nc1ccc2c(Sc3ccccc3[N+](=O)[O-])cn(Cc3cc(F)cc(F)c3)c2c1)C(F)(F)F [Compound 59, N-[1-(3,5-Difluoro-benzyl)-3-(2-nitro-phenylsulfanyl)-1H-indol-6-yl]-2,2,2-trifluoro-acetamide] | > 10 | < 5 | – | –
